Laboratory results published in ChEMBL document CHEMBL3627712, “Synthesis and initial evaluation of quinoline-based inhibitors of the SH2-containing inositol 5'-phosphatase (SHIP)” (Bioorg Med Chem Lett, 2015).

Key:
[1] = target: T1, Phosphatidylinositol 3,4,5-trisphosphate 5-phosphatase 2 (Homo sapiens) (UniProt O15357); assay: Inhibition of recombinant human truncated SHIP2 using PI(3,4,5)P3diC8 at 1 mM after 30 mins by malachite green phosphatase release assay
T1 sequence (whole entry): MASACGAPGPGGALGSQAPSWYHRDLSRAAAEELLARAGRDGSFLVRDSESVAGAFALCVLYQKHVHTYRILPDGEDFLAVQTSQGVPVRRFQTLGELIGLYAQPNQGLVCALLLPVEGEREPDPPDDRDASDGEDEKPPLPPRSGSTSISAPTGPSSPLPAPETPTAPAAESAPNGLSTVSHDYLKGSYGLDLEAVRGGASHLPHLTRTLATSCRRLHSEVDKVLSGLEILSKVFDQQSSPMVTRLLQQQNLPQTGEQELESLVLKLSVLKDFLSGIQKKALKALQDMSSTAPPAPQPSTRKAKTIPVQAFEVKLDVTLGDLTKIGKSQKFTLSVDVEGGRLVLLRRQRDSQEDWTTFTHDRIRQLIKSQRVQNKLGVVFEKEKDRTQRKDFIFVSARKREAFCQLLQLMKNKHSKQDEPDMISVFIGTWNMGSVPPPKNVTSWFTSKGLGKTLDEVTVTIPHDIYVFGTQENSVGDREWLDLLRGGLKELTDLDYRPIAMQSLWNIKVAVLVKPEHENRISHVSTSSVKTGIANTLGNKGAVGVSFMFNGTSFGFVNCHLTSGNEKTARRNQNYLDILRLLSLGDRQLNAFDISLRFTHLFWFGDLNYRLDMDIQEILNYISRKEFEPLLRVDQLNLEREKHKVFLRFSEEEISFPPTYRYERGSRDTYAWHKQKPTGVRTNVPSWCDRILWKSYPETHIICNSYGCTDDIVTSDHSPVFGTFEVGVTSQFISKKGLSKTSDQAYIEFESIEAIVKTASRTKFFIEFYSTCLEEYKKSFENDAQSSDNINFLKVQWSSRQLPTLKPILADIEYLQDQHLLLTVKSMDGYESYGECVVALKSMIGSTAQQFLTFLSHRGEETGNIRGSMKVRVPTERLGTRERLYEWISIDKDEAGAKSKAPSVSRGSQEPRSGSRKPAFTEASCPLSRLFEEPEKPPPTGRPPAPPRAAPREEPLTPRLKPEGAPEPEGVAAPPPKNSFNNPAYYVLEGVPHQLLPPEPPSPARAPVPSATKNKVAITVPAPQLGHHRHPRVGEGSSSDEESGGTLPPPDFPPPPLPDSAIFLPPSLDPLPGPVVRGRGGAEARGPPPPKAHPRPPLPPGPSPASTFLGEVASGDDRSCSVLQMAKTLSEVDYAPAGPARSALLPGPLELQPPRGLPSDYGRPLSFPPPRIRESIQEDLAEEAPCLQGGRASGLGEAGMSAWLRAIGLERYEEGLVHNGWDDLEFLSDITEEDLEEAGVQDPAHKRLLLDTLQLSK

[2] = target: T2, Phosphatidylinositol 3,4,5-trisphosphate 5-phosphatase 1 (Homo sapiens) (UniProt Q92835); assay: Inhibition of recombinant human truncated SHIP1 using PI(3,4,5)P3diC8 at 1 mM after 30 mins by malachite green phosphatase release assay
T2 sequence (whole entry): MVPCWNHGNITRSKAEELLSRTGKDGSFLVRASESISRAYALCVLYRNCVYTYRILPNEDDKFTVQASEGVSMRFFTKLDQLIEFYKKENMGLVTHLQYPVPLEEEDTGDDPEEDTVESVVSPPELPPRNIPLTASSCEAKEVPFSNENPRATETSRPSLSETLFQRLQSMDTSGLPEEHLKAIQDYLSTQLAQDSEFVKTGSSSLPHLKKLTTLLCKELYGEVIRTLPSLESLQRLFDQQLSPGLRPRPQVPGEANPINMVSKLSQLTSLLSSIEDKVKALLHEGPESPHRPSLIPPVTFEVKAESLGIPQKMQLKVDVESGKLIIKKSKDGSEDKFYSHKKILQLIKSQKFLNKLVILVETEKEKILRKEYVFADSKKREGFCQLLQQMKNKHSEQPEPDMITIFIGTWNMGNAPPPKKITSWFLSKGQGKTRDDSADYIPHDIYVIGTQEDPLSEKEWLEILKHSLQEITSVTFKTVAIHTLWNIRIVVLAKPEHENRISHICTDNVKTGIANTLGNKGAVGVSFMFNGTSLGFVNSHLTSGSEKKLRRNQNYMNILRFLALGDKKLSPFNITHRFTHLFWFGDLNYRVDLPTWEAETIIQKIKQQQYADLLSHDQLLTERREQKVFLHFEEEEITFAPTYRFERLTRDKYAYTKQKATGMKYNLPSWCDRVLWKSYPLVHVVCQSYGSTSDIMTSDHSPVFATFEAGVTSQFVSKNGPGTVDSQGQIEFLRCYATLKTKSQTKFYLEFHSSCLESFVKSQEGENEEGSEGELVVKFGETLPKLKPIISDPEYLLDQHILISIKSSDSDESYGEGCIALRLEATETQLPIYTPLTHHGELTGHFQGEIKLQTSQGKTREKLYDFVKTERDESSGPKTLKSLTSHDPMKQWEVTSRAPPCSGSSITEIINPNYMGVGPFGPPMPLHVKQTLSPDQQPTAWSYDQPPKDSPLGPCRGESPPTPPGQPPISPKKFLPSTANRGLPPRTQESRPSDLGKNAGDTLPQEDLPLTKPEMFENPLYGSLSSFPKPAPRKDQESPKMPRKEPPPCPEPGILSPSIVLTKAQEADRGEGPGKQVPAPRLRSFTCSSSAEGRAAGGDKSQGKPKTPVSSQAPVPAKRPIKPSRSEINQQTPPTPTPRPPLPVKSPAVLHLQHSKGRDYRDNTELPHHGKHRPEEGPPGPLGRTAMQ

[3] = target: T2, Phosphatidylinositol 3,4,5-trisphosphate 5-phosphatase 1 (Homo sapiens); assay: Inhibition of recombinant human truncated SHIP1 using PI(3,4,5)P3diC8 at 500 uM after 30 mins by malachite green phosphatase release assay
[4] = target: T1, Phosphatidylinositol 3,4,5-trisphosphate 5-phosphatase 2 (Homo sapiens); assay: Inhibition of recombinant human truncated SHIP2 using PI(3,4,5)P3diC8 at 500 uM after 30 mins by malachite green phosphatase release assay

Compound	inhibition [1] [%]	inhibition [2] [%]	inhibition [3] [%]	inhibition [4] [%]
C=C[C@H]1CN2CC[C@H]1C[C@@H]2[C@@H](O)c1ccnc2ccc(OC)cc12	5	19		
OC(c1cc(-c2ccccc2)nc2c1ccc1ccccc12)C1CCCCN1 (centres undefined)	17	38		
CN[C@@H](C)[C@@H](O)c1ccccc1	13	2		
OCc1cc(C23CC4CC(CC(C4)C2)C3)nc2c(Cl)cc(Cl)cc12			0	14
O=C(O)c1cc(C23CC4CC(CC(C4)C2)C3)nc2c(Cl)cc(Cl)cc12			44	0
OCc1cc(-c2ccccc2)nc2c1ccc1ccccc12			2	18
OC(c1cc(C23CC4CC(CC(C4)C2)C3)nc2c(Cl)cc(Cl)cc12)C1CCCCN1 (centres undefined)	73	38		
CN[C@@H](C)[C@H](O)c1ccccc1	0	0		
NCc1cc(-c2ccccc2)nc2c1ccc1ccccc12	66	41		
O=C(O)c1cc(-c2ccccc2)nc2c1ccc1ccccc12			7	0
OC(c1cc(C(F)(F)F)nc2c(C(F)(F)F)cccc12)C1CCCCN1 (centres undefined)	54	54		
C=C[C@H]1CN2CC[C@H]1C[C@H]2[C@H](O)c1ccnc2ccc(OC)cc12	8	0		
